Assay results as given in US7202023B2 (priority 2000, dated 2007).
≈ marks a conversion by molar mass, not a printed value.

Columns and labels:
PABA uptake = conditions: 14C-PABA, Herrington (1994) Anal Biochem 216:427–430; cited from earlier work
[1] = test system: B. subtilis reporter strain PY79(amy::PpanB::lacZ, cat); test: Minimum inhibitory concentration (MIC) in 96-well microtiter plate, OD600 after about 18 hours; assay type: cell-based; conditions: Bacillus subtilis
Procedure: The minimum inhibitory concentrations (MIC) for trimethoprim and sulfamethoxazole were determined for each of the reporter strains. To determine the MIC, a compound of interest (e.g., trimethoprim or sulfamethoxazole) was placed in a 96-well microtiter plate such that the concentration of the compound varies in various wells of the plate (e.g., by using a series of 2-fold dilutions of the compound). Approximately 5,000 cells from a logarithmically-growing culture (e.g., the B. subtilis strain PY79) in Luria broth were added to each well (e.g., in a volume of 50–80 μl). The plate then was incubated at 37° C. for approximately 18 hours. The OD600 was then read to measure cell growth in each well of the plate. The lowest concentration of the compound that leads to complete killing of the culture (i.e., the concentration of compound for which the OD600 nm is equal to a control well that contains only media and the test compound) is deemed the MIC for the particular compound and bacterial strain.

[2] = test system: panBCD operon (panB promoter); test: RNA (transcriptional) profiling of panB, panC, panD mRNA levels in treated bacterial cells; assay type: cell-based, B. subtilis; conditions: LB medium, 37° C.
[3] = 10 μg/ml trimethoprim, 90 minutes

Row | Compound | PABA uptake (PABA uptake) | MIC [1] | panB mRNA levels induced [2, 3] | panC mRNA levels induced [2, 3] | panD mRNA levels induced [2, 3] | panD mRNA levels induced ([2]; 0.5 mg/ml sulfamethoxazole, 80 minutes)
1 | COc1cc(Cc2cnc(N)nc2N)cc(OC)c1OC [trimethoprim] | inhibited | 3 mg/L (≈ 10.3 µM) | 10 fold | 54 fold | 38 fold | –
2 | Nc1ccc(S(=O)(=O)Nc2nccs2)cc1 [sulfathiazole] | inhibited | – | – | – | – | –
3 | Cc1cc(NS(=O)(=O)c2ccc(N)cc2)no1 [sulfamethoxazole] | – | 500 mg/L (≈ 1970 µM) | – | – | – | 148 fold
